In patent publication US20140243403A1, “TREATING COLORECTAL, PANCREATIC, AND LUNG CANCER” (The General Hospital Corporation, priority 2011, published 2014):

How the values were obtained:
[1] = tested on: CCK-81 cells; experiment: Cellular proliferation and viability, CRC cell line panel; type: cell-based, human; details: KRAS WT, BRAF WT, 3 days post-treatment
Method: (§1) (A) IC50 values (μM) for effects on cellular proliferation and viability with the TAK1 kinase inhibitor 5z-7-oxozeaenol in a panel of colon cancer cell lines that have been genotyped as KRAS mutant (KRAS-independent—circles or KRAS-dependent—squares), BRAF mutant (triangles) or wild-type for both KRAS and BRAF (OTHER—diamonds). Effects on growth were measured 3 days post-treatment. Data are represented as the mean of 3 independent experiments and error bars indicate the median±interquartile range. *denotes p<0.00001; n.s.—not significant.
(§2) To further validate TAK1 as a candidate therapeutic target in this context, a potent and selective TAK1 kinase inhibitor, 5Z-7-oxozeaenol (Rawlins et al., 1999), was used. Sensitivity to 5Z-7-oxozeaenol was tested in a panel of 47 colon cancer cell lines with various genotypes (FIGS. 3A and 9A). KRAS and BRAF genotypes were either procured from the Sanger Institute's Catalog of Somatic Mutations (COSMIC) or determined by targeted resequencing (Table 2). KRAS mutation status was determined as described above; the same methods were used to determine the mutation states of BRAF. BRAF exon15 was sequenced with TCATAATGCTTGCTCTGATAGGA (forward; SEQ ID NO:3) and GGCCAAAAATTTAATCAGTGG (reverse; SEQ ID NO:4).

[2] = tested on: Caco-2 cells; experiment: as above; type: cell-based, human; details: KRAS WT, BRAF V600E, CTNNB1 WT, 3 days post-treatment
Method: as §1, §2

[3] = tested on: DLD-1 cells; experiment: as above; type: cell-based, human; details: KRAS G13D, BRAF WT, APC del, CTNNB1 WT, 3 days post-treatment
Method: as §1, §2

[4] = tested on: HCC56 cells; experiment: as above; type: cell-based, human; details: KRAS G12V, BRAF WT, 3 days post-treatment
Method: as §1, §2

[5] = tested on: HCT-8 cells; experiment: as above; type: cell-based, human; details: KRAS G13D, BRAF WT, APC del, CTNNB1 WT, 3 days post-treatment
Method: as §1, §2

[6] = tested on: MDST8 cells; experiment: as above; type: cell-based, human; details: KRAS WT, BRAF V600K, APC nd, CTNNB1 WT, 3 days post-treatment
Method: as §1, §2

[7] = tested on: RCM-1 cells; experiment: as above; type: cell-based, human; details: KRAS G12V (KRAS-dependent), BRAF WT, APC del, CTNNB1 WT, 3 days post-treatment
Method: as §1, §2

[8] = tested on: SKCO1 cells; experiment: as above; type: cell-based, human; details: KRAS G12V (KRAS-dependent), BRAF WT, APC del, CTNNB1 WT, 3 days post-treatment
Method: as §1, §2

[9] = tested on: T84 cells; experiment: as above; type: cell-based, human; details: KRAS G13D, BRAF WT, APC del, CTNNB1 WT, 3 days post-treatment
Method: as §1, §2

[10] = tested on: SK-CO-1 and SW620 (KRAS-dependent) xenografted tumors; experiment: Subcutaneous xenografted tumors, KRAS-dependent; type: in vivo, NOD/SCID mice; details: 15 mg/kg daily intraperitoneal, 6 days of treatment
Method: (C) TAK1 inhibition in mice with xenografted human tumors derived from the HCT8/SW837 (KRAS-independent) and SK-CO-1/SW620 (KRAS-dependent) cell lines. Cells expressing firefly luciferase were injected subcutaneously into the flanks of […]. Tumors are shown as imaged by IVIS detection of luminescence counts (in photons/sec) following 14 days of tumor growth followed by 6 days of treatment with either 15 mg/kg 5z-7-oxozeaenol or vehicle ([…] in arachis oil), IP delivery q.d. Quantitation of tumor volume (mm^3) is plotted on the right. Tumor volume data are represented as the mean of 4 tumors in 2 mice for each group+/−SEM.
To validate the efficacy of 5Z-7-oxozeaenol in vivo, subcutaneous xenografted tumors were generated in NOD/SCID mice using four representative KRAS mutant cell lines: HCT8 and SW837 (KRAS-independent), and SK-CO-1 and SW620 (KRAS-dependent). Human colorectal cancer tumor cells were trypsinized and resuspended as single cell suspensions at 3×10^7 cells per ml in PBS. 100 μL (3×10^6 cells total) of this suspension were injected into opposite left and right flanks of NOD/SCID mice. All mice were housed in a pathogen-free environment. Tumor size was monitored daily and once tumor volume had reached approximately 200 mm^3, treatment with 5Z-7-oxozeaenol was initiated (7 to 14 days post-implantation). Mice were injected daily with 15 mg/kg 5Z-7-oxozeaenol. […]

[11] = tested on: TOP-FLASH TCF4-responsive luciferase reporter; experiment: TOP-FLASH TCF4 luciferase reporter in colon cancer cell lines; type: cell-based, human
Text: (B) TOP-FLASH activity in KRAS-independent and KRAS-dependent cell lines following TAK1 inhibition with indicated concentrations (μM). Data are represented as means of triplicate experiments±SEM.
Since Wnt pathway enrichment was found in KRAS-dependent cells (FIG. 8C), the TAK1 dependency signature was overlapped with a dataset of binding sites for the Wnt-regulated transcription factor TCF4, derived from ChIP-on-Chip analyses (Hatzis et al., 2008). Of the 32 TAK1 dependency genes, 18 contained proximal TCF4 binding sites. A number of these genes, such as BAMBI, PROX1 and NAV2 (HELAD1) have been previously linked to colon tumorigenesis in the context of deregulated Wnt signaling (Lin et al., 2008; Petrova et al., 2008; Sekiya et al., 2004). Basal Wnt signaling activity was measured by TOP-FLASH TCF4-responsive luciferase assays. Cells were plated in 12-well tissue culture plates at a density of 5×10^4 cells/ml and 1 ml per well. Cells were then co-transfected with either 0.5 μg FOP-FLASH or TOP-FLASH plasmids plus 50 ng of pRL-TK (expressing Renilla luciferase). […]
To explore the role of KRAS and TAK1 in modulating Wnt signaling, the effect of KRAS depletion on β-catenin/TCF transcription was first assessed in a panel of KRAS mutant cell lines using the TOP-FLASH reporter (FIGS. 5A and 11A). […]

`COc1cc(O)c2c(c1)/C=C/C[C@H](O)[C@H](O)C(=O)/C=C\C[C@H](C)OC2=O` [5Z-7-oxozeaenol] was tested, and the IC50 [1] was 0.412 µM, the IC50 [2] was 1.44 µM and the IC50 [3] was 8.23 µM. The IC50 [4] was 2.34 µM, the IC50 [5] was 47.3 µM and the IC50 [6] was 0.226 µM. It also gave an IC50 [7] of 0.277 µM, an IC50 [8] of 0.026 µM and an IC50 [9] of 2.81 µM. For the same compound, the “tumor response (imaging, tumor volume)” value [10] was “remarkable regression”, the IC50 ([11]; KRAS-independent cells, 24 h treatment, read-out: IC50 for effect on TOP-FLASH activity) was > 10 µM and the TOP-FLASH activity response ([11]; SW837 cells, increased at low doses, reduced at 5 μM) was “biphasic response”.
